Laboratory results reported in patent US5977097A, “1-methylcarbapenem derivatives” (Sankyo Company Limited, priority 1996, dated 1999).
≈ marks a conversion by molar mass, not a printed value.

Key:
Pseudomonas aeruginosa = test: Antibacterial activity against Pseudomonas aeruginosa compared with aminomethyl compounds A and B; assay type: cell-based
Experimental: Antibacterial activity was measured by the agar plate dilution method, whereby the minimum growth inhibitory concentration (MIC: μg/ml) against various pathogenic bacteria was determined. The test results on the antibacterial activity of the compounds of the invention of Examples 3 and 7 against Staphylococcus aureus […], Escherichia coli NIHJ and Pseudomonas aeruginosa No. 7 are shown in Table 2. Incidentally, Compounds A and B used for comparison are compounds of Example 3 in Japanese Patent Application Kokai No. Hei 5-310740 [compounds represented by the formula (I) of the present invention, wherein R^1, R^2 and R^3 represent hydrogen atoms]. Compound A has the R configuration at the binding position of the aminomethyl group. Compound B has the S configuration at the binding position of the aminomethyl group. The culture of the bacterial strain to be tested was inoculated intraperitoneally to groups of mice (SPF, DDY, male), each group consisting of 7 animals. A solution of the test compound was subcutaneously administered twice in total to the mice, once immediately and once four hours after the inoculation. From the survival ratio five days after infection, the 50% effective dose (ED50 : mg/kg) was determined by the Probit method and the single dose of test compound was indicated.

Nephrotoxicity = assay type: in vivo; settings: rabbits, intravenous, 200 mg/kg
Experimental: When the compounds of the present invention were administered to rabbits, the incorporation in to the renal cortex is relatively low.

[1] = test system: Pseudomonas aeruginosa 1008; test: In vivo antibacterial activity, treatment of infected mice (Test 3); parameters: species or system mice (SPF, DDY, male); settings: Pseudomonas aeruginosa, 1008, sc, 120 h, intraperitoneal infection, subcutaneous twice (immediately and 4 h after inoculation), survival at five days, expressed as single dose, read-out: Treatment against infections, 50% effective dose (ED50)
Experimental: The culture of the bacterial strain to be tested was inoculated intraperitoneally to groups of mice (SPF, DDY, male), each group consisting of 7 animals. A solution of the test compound was subcutaneously administered twice in total to the mice, once immediately and once four hours after the inoculation. From the survival ratio five days after infection, the 50% effective dose (ED50 : mg/kg) was determined by the Probit method and the single dose of test compound was indicated. The test results of the compound of Example 3, compound A and Meropenem against Pseudomonas aeruginosa 1008 are shown in Table 4. Incidentally, Compound A is as described above.

[2] = test system: Staphylococcus aureus 209P; test: In vitro antibacterial activity by agar plate dilution method (Test 1); assay type: cell-based; settings: Mueller-Hinton II agar, read-out: Minimum Growth Inhibitory Concentration (MIC)
Experimental: (§1) Antibacterial activity was measured by the agar plate dilution method, whereby the minimum growth inhibitory concentration (MIC: μg/ml) against various pathogenic bacteria was determined. The test results on the antibacterial activity of the compounds of the invention of Examples 3 and 7 against Staphylococcus aureus […], Escherichia coli NIHJ and Pseudomonas aeruginosa No. 7 are shown in Table 2. Incidentally, Compounds A and B used for comparison are compounds of Example 3 in Japanese Patent Application Kokai No. Hei 5-310740 [compounds represented by the formula (I) of the present invention, wherein R^1, R^2 and R^3 represent hydrogen atoms]. Compound A has the R configuration at the binding position of the aminomethyl group. Compound B has the S configuration at the binding position of the aminomethyl group. The medium used for the measurement was Mueller-Hinton II agar (MHA, Becton Dikinson Microbiology Systems).

Escherichia coli NIHJ [3] = test: as above; assay type: cell-based; settings: Mueller-Hinton II agar, read-out: Minimum Growth Inhibitory Concentration (MIC)
Experimental: as §1

[4] = test system: Pseudomonas aeruginosa No. 7; test: as above; assay type: cell-based; settings: Mueller-Hinton II agar, read-out: Minimum Growth Inhibitory Concentration (MIC)
Experimental: as §1

[5] = test system: Staphylococcus aureus 209P; test: In vitro antibacterial activity (Test 2); assay type: cell-based; settings: Nutrient Agar Eiken, read-out: Minimum Growth Inhibitory Concentration (MIC)
Experimental: (§2) Antibacterial activity was measured by the agar plate dilution method, whereby the minimum growth inhibitory concentration (MIC: μg/ml) against various pathogenic bacteria was determined. The test results on the antibacterial activity of the compounds of the invention of Examples 3 and 7 against Staphylococcus aureus 209P, Escherichia coli NIHJ and Pseudomonas aeruginosa No. 7 are shown in Table 2.
(§3) The antibacterial activities of the compounds of the invention of Examples 3 and 7 and meropenem against Staphylococcus aureus 209P, Escherichia coli NIHJ and Pseudomonas aeruginosa 3719 (strain resistant to meropenem) are shown in Table 3.
(§4) The medium used for the measurement was Nutrient Agar Eiken (Eiken Chemicals Co., Ltd.).

Escherichia coli NIHJ [6] = test: In vitro antibacterial activity (Test 2); assay type: cell-based; settings: Nutrient Agar Eiken, read-out: Minimum Growth Inhibitory Concentration (MIC)
Experimental: as §2, §3, §4

[7] = test system: Pseudomonas aeruginosa 3719 (strain resistant to meropenem); test: In vitro antibacterial activity (Test 2); assay type: cell-based; settings: Pseudomonas aeruginosa 3719 (resistant to meropenem); Nutrient Agar Eiken; read-out: Minimum Growth Inhibitory Concentration (MIC)
Experimental: as §2, §3, §4

[8] = Pharmacokinetics such as half-life in blood; settings: in vivo

MIC [2] [µg/mL] | MIC (Escherichia coli NIHJ [3]) [µg/mL] | MIC [4] [µg/mL] | MIC [5] [µg/mL] | MIC (Escherichia coli NIHJ [6]) [µg/mL] | MIC [7] [µg/mL] | SMILES | activity against Pseudomonas aeruginosa (Pseudomonas aeruginosa) | nephrotoxicity (Nephrotoxicity) | ED50 [1] [mg/kg] | pharmacokinetic properties such as half-life in blood [8]
0.02 (≈ 0.0442 µM) | 0.02 (≈ 0.0442 µM) | 0.05 (≈ 0.11 µM) | ≤ 0.01 | ≤ 0.01 | 0.2 (≈ 0.442 µM) | CNC[C@H]1CCN(C(=O)[C@@H]2C[C@H](SC3=C(C(=O)O)N4C(=O)[C@H]([C@@H](C)O)[C@H]4[C@H]3C)CN2)C1 [Example 3, (1R,5S,6S)-6-[(1R)-1-Hydroxyethyl]-1-methyl-2-[(2S,4S)-2-[(3R)-3-methylaminomethylpyrrolidin-1-ylcarbonyl]pyrrolidin-4-ylthio]-1-carbapen-2-em-3-carboxylic acid] | superior activity against Pseudomonas aeruginosa | did not exhibit nephrotoxicity | 0.22 | excellent pharmacokinetic properties such as half-life in blood
– | – | – | 0.02 (≈ 0.0522 µM) | ≤ 0.01 | 6.2 (≈ 16.2 µM) | C[C@@H](O)[C@H]1C(=O)N2C(C(=O)O)=C(S[C@@H]3CN[C@H](C(=O)N(C)C)C3)[C@H](C)[C@H]12 [Meropenem, meropenem, reference compound] | – | – | 0.72 | –
0.02 (≈ 0.0416 µM) | 0.02 (≈ 0.0416 µM) | 0.05 (≈ 0.104 µM) | ≤ 0.01 | ≤ 0.01 | 0.1 (≈ 0.208 µM) | C[C@@H](O)[C@H]1C(=O)N2C(C(=O)O)=C(S[C@@H]3CN[C@H](C(=O)N4CC[C@H](CNC(=N)N)C4)C3)[C@H](C)[C@H]12 [Example 7, (1R,5S,6S)-2-[(2S,4S)-2-[(3R)-3-Guanidinomethylpyrrolidin-1-ylcarbonyl]pyrrolidin-4-ylthio]-6-[(1R)-1-hydroxyethyl]-1-methyl-1-carbapen-2-em-3-carboxylic acid] | – | – | – | –
